Experiments:
Human G9a = molecular target: T1, Human G9a (Homo sapiens, UniProt Q96KQ7); experiment: G9a assay (3H-AdoMet filter-binding); type: biochemical; details: for IC50: 10-dose IC50 mode, 2-fold serial dilution starting at 400 µM
T1 sequence (Q96KQ7 786-1210 limits assumed): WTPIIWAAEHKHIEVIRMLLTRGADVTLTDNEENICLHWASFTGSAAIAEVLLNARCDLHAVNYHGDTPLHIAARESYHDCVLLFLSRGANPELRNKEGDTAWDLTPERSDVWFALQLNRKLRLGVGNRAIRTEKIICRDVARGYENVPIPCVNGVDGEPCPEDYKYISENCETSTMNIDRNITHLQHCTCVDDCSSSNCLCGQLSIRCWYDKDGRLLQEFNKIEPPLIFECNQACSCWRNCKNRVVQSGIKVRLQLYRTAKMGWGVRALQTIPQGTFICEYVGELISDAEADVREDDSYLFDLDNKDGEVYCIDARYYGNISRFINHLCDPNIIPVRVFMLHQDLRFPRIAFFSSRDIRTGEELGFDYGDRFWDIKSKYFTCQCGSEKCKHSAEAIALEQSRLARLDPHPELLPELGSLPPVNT
Procedure: The reaction buffer was 50 mM Tris-HCl, pH 8.5, 50 mM NaCl, 5 mM MgCl2, 1 mM dithiothreitol (DTT), 1 mM PMSF, and 1% DMSO. Standard substrate concentrations were 5 µM biotinylated H3 (1–21) peptide (AnaSpec) substrate and 0.1 mM AdoMet. For control compound IC50 determinations, the test compounds were diluted in DMSO and then added to the enzyme/substrate mixture in nanoliter amounts by using an acoustic technology (Echo 500; Lab-cyte). The reaction was initiated by the addition of ^3H-AdoMet, and incubated at 30°C for 1 h. The reaction was detected by a filter-binding method. Data analysis was performed using Graph Pad Prism software for curve fits, and GraFit (Erithacus) for global fit of kinetic studies.

[1] = test system: CMV-luc construct in KG-1 cells; experiment: CMV-luc assay (luciferase re-expression from methylated CMV promoter); type: cell-based; details: 24 h
RAJI cells = experiment: Cell viability by trypan blue exclusion, RAJI; type: cell-based, human; details: 48 h; for IC50: Homo sapiens, Raji, read-out: IC50 (mean ± SD) cell viability RAJI
Procedure: U-937 and RAJI cell lines were purchased from Deutsche Sammlung für Mikroorganismen und Zellkulturen (DSZM). Cells were maintained in RPMI 1640 (Lonza) supplemented with 10% fetal calf serum (Lonza) and 1% antibiotic–antimycotic (Lonza). Cells were treated with compounds at the indicated concentrations in exponential growth phase. Proliferation and viability were assessed by trypan blue exclusion analysis at the indicated time points.

human DNMT1 (hDNMT1) = molecular target: T2, human DNMT1 (hDNMT1) (Homo sapiens, UniProt P26358); experiment: DNMT1 assay (radioactive Flashplate methylation assay); type: biochemical; details: for inhibition at 100 µM: 100 µM compound, read-out: % inhibition ± SD hDNMT1
T2 construct: His; made in house
Procedure: His-DNMT1 (182 kDa, human) was cloned, expressed and purified as described by Lee et al.. The DNMT1 assay was performed according to Gros et al.. Briefly, the reaction was started by addition of 90 nM of DNMT1 on a mix containing the tested compound (up to 1% DMSO), 1 µM of a AdoMet/[methyl-^3H]-AdoMet mix in a ratio of 3-to-1 (isotopic dilution 1*:3) and 0.3 µM of biotinylated DNA duplex in 10 µL final volume. The reaction was incubated at 37°C for 2 h in reaction buffer (20 mM HEPES pH 7.2, 1 mM EDTA, 50 mM KCl, 25 µg/mL BSA). 8 µL are then transferred into a streptavidin-coated Flashplate PLUS (PerkinElmer) containing 190 µL of 20 µM AdoHcy (Sigma-Aldrich) in 50 mM Tris-HCl pH 7.4. The Flashplate was agitated at room temperature for 1 h, washed three times with 200 µL of 0.05% Tween-20 in 50 mM Tris-HCl pH 7.4 and read in 200 µL of 50 mM Tris-HCl pH 7.4 on TopCount NXT (PerkinElmer). Percentages of inhibition were calculated with the same formula as in DNMT3A assay.

[2] = molecular target: T3, C-terminal catalytic domain of human DNMT3A (hDNMT3A) (Homo sapiens, UniProt Q9Y6K1); experiment: DNMT3A assay (restriction-based fluorescence assay); type: biochemical; details: for inhibition at 3.2 µM: 3.2 µM compound; for inhibition at 3.2 µM / inhibition at 10 µM / inhibition at 32 µM / inhibition at 100 µM: read-out: % inhibition ± SD hDNMT3A; for inhibition at 10 µM: 10 µM compound; for inhibition at 32 µM: 32 µM compound; for inhibition at 100 µM: 100 µM compound; for EC50: catalytic domain of hDNMT3A, means of at least three experiments
T3 construct: catalytic domain of human DNMT3A (residues 623–908), produced as described; made in house
Text: (§1) DNMT3A enzyme inhibition was adapted from the restriction-based fluorescence assay protocol described in Ceccaldi et al.. Briefly, a 5'-labelled biotin oligonucleotide is hybridized to its complementary strand labelled with 6-carboxyfluorescein at the 3′-end into a 384 well microplate (black Optiplates; Perkin Elmer) pre-coated with avidin. The duplex contains a unique CpG site overlapping with a restriction site of a methylation sensitive restriction enzyme. The C-terminal catalytic domain of human DNMT3A (residues 623–908), produced as described, was added in each well (200 ng/well) and mixed with the chemical compounds at desired concentrations and freshly prepared AdoMet (20 µM final concentration) to start the reaction in a total volume of 50 µL. After 1 hour incubation at 37°C each well were washed three times with PBS, 0.05% Tween-20, 500 mM NaCl and three more times with PBST. Specific fluorescent signals were detected with the methylation-sensitive restriction enzyme HpyCH4IV (NEB) as described and measured on a Perkin Elmer Envision detector. The percentage of inhibition is reported. The formula used to calculate the percentage of inhibition is [(X-Y)/X]×100, where X is the signal determined in the absence of the inhibitor and Y is the signal obtained in the presence of the inhibitor. […] The non-linear regression fittings with sigmoidal dose-response (variable slope) were performed with GraphPad Prism 4.03 (GraphPad Software).

[3] = test system: C-terminal catalytic domain of human DNMT3A (hDNMT3A); experiment: as above; type: biochemical; details: for selectivity for DNMT3A over G9a inhibition: G9a IC50 vs DNMT3A EC50
Text: as §1

T2 sequence (P26358 whole entry): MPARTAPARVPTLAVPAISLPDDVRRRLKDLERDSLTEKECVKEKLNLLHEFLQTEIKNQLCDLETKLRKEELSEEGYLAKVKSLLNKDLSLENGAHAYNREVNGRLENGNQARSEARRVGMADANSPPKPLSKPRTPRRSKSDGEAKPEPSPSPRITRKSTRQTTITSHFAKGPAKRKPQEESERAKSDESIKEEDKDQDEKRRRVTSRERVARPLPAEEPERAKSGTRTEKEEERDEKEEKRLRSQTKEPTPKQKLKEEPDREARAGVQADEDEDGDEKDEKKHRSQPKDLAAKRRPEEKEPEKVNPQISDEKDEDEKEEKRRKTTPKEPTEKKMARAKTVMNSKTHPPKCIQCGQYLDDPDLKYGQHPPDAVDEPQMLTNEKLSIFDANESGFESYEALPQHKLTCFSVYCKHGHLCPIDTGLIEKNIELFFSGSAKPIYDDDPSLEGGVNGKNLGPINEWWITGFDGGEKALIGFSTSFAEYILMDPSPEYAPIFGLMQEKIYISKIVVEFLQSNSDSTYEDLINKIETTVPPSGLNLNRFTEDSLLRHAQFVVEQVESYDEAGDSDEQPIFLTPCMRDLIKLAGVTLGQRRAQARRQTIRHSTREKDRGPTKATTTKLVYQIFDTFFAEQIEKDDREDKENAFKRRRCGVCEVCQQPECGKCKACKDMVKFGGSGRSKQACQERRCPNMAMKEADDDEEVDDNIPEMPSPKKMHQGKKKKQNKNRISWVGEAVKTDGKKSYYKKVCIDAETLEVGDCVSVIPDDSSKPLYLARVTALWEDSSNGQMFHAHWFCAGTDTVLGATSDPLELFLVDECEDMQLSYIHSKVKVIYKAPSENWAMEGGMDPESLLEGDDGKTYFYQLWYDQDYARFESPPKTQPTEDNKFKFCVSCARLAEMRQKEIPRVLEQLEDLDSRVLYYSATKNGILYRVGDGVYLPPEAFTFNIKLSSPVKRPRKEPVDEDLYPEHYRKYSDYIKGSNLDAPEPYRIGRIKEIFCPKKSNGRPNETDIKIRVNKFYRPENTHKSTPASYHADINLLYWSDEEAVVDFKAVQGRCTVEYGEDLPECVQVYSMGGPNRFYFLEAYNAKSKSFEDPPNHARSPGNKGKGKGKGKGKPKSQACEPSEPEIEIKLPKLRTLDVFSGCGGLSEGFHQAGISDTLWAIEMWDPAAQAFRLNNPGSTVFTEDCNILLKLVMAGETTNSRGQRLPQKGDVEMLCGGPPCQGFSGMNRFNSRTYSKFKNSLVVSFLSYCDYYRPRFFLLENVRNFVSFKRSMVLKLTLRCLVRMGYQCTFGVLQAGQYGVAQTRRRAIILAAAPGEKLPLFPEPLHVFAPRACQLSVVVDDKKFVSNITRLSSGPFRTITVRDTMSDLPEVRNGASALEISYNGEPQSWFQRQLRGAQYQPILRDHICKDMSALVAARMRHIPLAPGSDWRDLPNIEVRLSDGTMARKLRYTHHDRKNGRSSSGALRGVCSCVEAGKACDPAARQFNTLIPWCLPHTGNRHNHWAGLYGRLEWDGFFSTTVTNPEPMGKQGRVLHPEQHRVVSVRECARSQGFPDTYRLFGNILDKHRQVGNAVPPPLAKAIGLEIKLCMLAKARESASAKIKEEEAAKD
T3 sequence (Q9Y6K1 627-912): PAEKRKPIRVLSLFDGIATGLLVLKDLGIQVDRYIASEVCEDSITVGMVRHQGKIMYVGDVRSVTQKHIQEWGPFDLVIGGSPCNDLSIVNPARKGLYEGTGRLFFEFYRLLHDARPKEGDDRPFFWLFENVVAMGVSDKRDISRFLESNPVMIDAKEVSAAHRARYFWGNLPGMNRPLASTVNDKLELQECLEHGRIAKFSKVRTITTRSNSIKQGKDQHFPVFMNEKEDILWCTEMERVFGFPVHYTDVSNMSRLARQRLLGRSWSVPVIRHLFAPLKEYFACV

SMILES	inhibition at 0.78 µM (Human G9a) [%]	inhibition at 1.56 µM (Human G9a) [%]	inhibition at 3.1 µM (Human G9a) [%]	inhibition at 6.2 µM (Human G9a) [%]	inhibition at 12.5 µM (Human G9a) [%]	inhibition at 25 µM (Human G9a) [%]	inhibition at 50 µM (Human G9a) [%]	inhibition at 100 µM (Human G9a) [%]	inhibition at 200 µM (Human G9a) [%]	inhibition at 400 µM (Human G9a) [%]	IC50 (Human G9a) [µM]	fold-induction of the luciferase signal (CMV-luc) ([1]; 25 µM)	IC50 (RAJI cells) [µM]	inhibition at 100 µM (human DNMT1 (hDNMT1)) [%]	inhibition at 3.2 µM [2] [%]	inhibition at 10 µM [2] [%]	inhibition at 32 µM [2] [%]	inhibition at 100 µM [2] [%]	EC50 [2] [µM]	selectivity for DNMT3A over G9a inhibition [3] [fold]	further results
c1ccc(CN2CCC(Nc3nc(N4CCN(c5ccccc5)CC4)nc4ccccc34)CC2)cc1 [Compound 14, N-(1-benzylpiperidin-4-yl)-2-(4-phenylpiperazin-1-yl)quinazolin-4-amine]	17.3	13.5	0	4.2	21.3	10.6	16.5	22.4	23.8	24	> 400	7.5 fold	3.4 ± 0.3	0	13 ± 2	40 ± 4	54 ± 3	63 ± 4	9 ± 2	> 40	fold-induction of the luciferase signal (CMV-luc) ([1]; 5 µM): 2/3; fold-induction of the luciferase signal (CMV-luc) ([1]; 50 µM): ineffective; antiproliferative potency compared to SGI-1027, fold more potent (RAJI cells; RAJI): 3 fold
CN1CCCN(c2nc(NC3CCN(Cc4ccccc4)CC3)c3ccccc3n2)CC1 [Compound 4]	0	0	1.9	0	–	0	7.9	21.8	16.4	23.5	> 400	12.5 fold	21.1 ± 2.5	0	16 ± 4	39 ± 2	55 ± 3	67 ± 3	10 ± 2.5	> 40	fold-induction of the luciferase signal (CMV-luc) ([1]; 10 µM): 2.8 fold; fold-induction of the luciferase signal (CMV-luc) ([1]; 50 µM): ineffective
c1ccc(CN2CCC(Nc3nc(N4CCN(c5ccccn5)CC4)nc4ccccc34)CC2)cc1 [Compound 13]	9.4	21.6	11	16.7	0	11.1	27.2	24.9	29.2	14	> 400	not effective	19.7 ± 1.4	0	8 ± 1	19 ± 13	52 ± 5	62 ± 3	12 ± 4	> 40	fold-induction of the luciferase signal (CMV-luc) ([1]; 5 µM): 2/3
c1ccc(CN2CCC(Nc3nc(N4CCCC4)nc4ccccc34)CC2)cc1 [Compound 10, N-(1-benzylpiperidin-4-yl)-2-(pyrrolidin-1-yl)quinazolin-4-amine]	0.3	13.4	14.7	4.6	5.9	13	18.6	20.8	49.5	37.8	> 400	not effective	18.7 ± 4.3	47 ± 1.7	8 ± 4	21 ± 8	43 ± 6	70 ± 4	35 ± 12	18	fold-induction of the luciferase signal (CMV-luc) ([1]; 5 µM): 2/3; inhibition at 10 µM (human DNMT1 (hDNMT1); 10 µM compound): 6.5%; inhibition at 32 µM (human DNMT1 (hDNMT1); 32 µM compound): 18%; EC50 (human DNMT1 (hDNMT1); means of at least three experiments): 144 ± 35 µM; selectivity for DNMT3A over DNMT1 ([3]; ratio of EC50 values): 4 fold

Reference: article PMC4014597 (PLoS ONE, 2014)
